Legend:
[1] = system: Xanthomonas oryzae; conditions: stated in the literature; cited from earlier work

| SMILES | action against Xanthomonas oryzae [1] | melting point [°C] |
| --- | --- | --- |
| OC[C@H]1O[C@@H](c2n[nH]c3cncnc23)[C@H](O)[C@@H]1O [Ib, 3-β-D-Ribofuranosyl-1H-pyrazolo[4,3-d]pyrimidine] | fungicidal action | 227 to 228 |
| CN(C)c1ncc2nnc([C@@H]3O[C@H](CO)[C@@H](O)[C@H]3O)n2n1 [Ig, 6-Dimethylamino-3-β-ribofuranosyl-1,2,4-triazolo[3,4-f]-1,2,4-triazine] | – | 171 to 173 |
| CN(C)c1ncc2nnc([C@@H]3O[C@H](COC(=O)c4ccccc4)[C@@H](OC(=O)c4ccccc4)[C@H]3OC(=O)c3ccccc3)n2n1 [If, 6-Dimethylamino-3-(2′,3′,5′-tri-O-benzoyl-β-ribofuranosyl)-1,2,4-triazolo-[3,4-f]-1,2,4-triazine] | – | 79 to 80 |

Source: patent US7368437B1, “Bicyclic heterocycles, processes for their preparation and their use as herbicides and pharmaceutical agents” (Bayer CropScience AG, priority 1999, dated 2008)
